Measured values taken from US4493843A, “Indole and indoline carboxylic acid compounds and method of use” (May & Baker Limited, priority 1980, dated 1985).
Where a name gives a salt, the structure may show the parent alone. Read-outs that look alike come from different tables or passages of the source.

Tested on: serum cholesterol and serum triglycerides
Test: Hypolipidaemic activity in rats (compound in diet, last 7 of 10 days)
Assay type: in vivo, Male Wistar rats
Settings: Rattus norvegicus, po, 168 h, 7 days; for change in vivo at 0.2 % strength: 0.2 % w/w dose in diet; for change in vivo at 0.1 % strength: 0.1 % w/w dose in diet
Description: Hypolipidaemic Activity in Rats
Male Wistar rats each weighing between 120 and 150 g were caged in groups of eight and fed a powdered diet for 10 days. For the last 7 days of that period the test compound was administered orally by mixing the compound in the diet and allowing the animals to feed normally. Food consumption was measured on day 9 for each group.
At noon on day 10 the animals were killed by inhalation of carbon dioxide from solid carbon dioxide. A sample of blood was removed by cardiac puncture and the serum cholesterol and serum triglycerides were analysed by means of an autoanalyser.
Control groups (receiving only the normal, unmedicated diet) were included with each test.
The percentage reductions in the concentrations of serum cholesterol and serum triglycerides were calculated by comparison with the simultaneous controls, for each concentration of the test compound used.

[1] = read-out: % change in serum cholesterol compared with control
[2] = read-out: % change in serum triglycerides compared with control

| Compound | change in vivo at 0.2 % strength [1] | change in vivo at 0.2 % strength [2] | change in vivo at 0.1 % strength [1] | change in vivo at 0.1 % strength [2] |
| --- | --- | --- | --- | --- |
| CCCCCCCCCCCCCCCCc1c[nH]c2ccc(C(=O)O)cc12 [Compound BHH, 3-(n-hexadecyl)indole-5-carboxylic acid] | -6% | -10% |  |  |
| CCCCCCCc1cc2ccc(C(=O)OC)cc2[nH]1 [Compound AII, methyl 2-(n-heptyl)indole-6-carboxylate] | 7% | 20% |  |  |
| CCCCCCCCCCC1Cc2ccc(C(=O)O)cc2N1 (racemic) [Compound ZZ, (RS)-2-(n-decyl)indoline-6-carboxylic acid] | -32% | -77% |  |  |
| CCCCCCCCCCCCCCCCCCc1c[nH]c2cc(C(=O)O)ccc12 [Compound BGG, 3-(n-octadecyl)indole-6-carboxylic acid] | -7% | -7% |  |  |
| CCCCCCCCCCCCCCCCCCCCc1cc2cc(C(=O)O)ccc2[nH]1 [Compound AA, 2-(n-eicosyl)indole-5-carboxylic acid] | -36% | -57% |  |  |
| CCCCCCCCCCCCCc1cc2ccc(C(=O)O)cc2[nH]1 [Compound A, 2-(n-tridecyl)indole-6-carboxylic acid] | -26% | -33% |  |  |
| CCCCCCCCc1cc2cc(C(=O)O)ccc2[nH]1 [Compound X, 2-(n-octyl)indole-5-carboxylic acid] | -18% | -25% |  |  |
| CCCCCCCc1cc2cc(C(=O)OCC)ccc2[nH]1 [Compound DD, ethyl 2-(n-heptyl)indole-5-carboxylate] | -6% | -25% |  |  |
| CCCCCCCc1cc2cc(C(=O)O)ccc2[nH]1 [Compound Q, 2-(n-heptyl)indole-5-carboxylic acid] | -10% | -14% |  |  |
| CCCCCCCCCCC1Cc2cc(C(=O)O)ccc2N1 (racemic) [Compound ACC, (RS)-2-(n-decyl)indoline-5-carboxylic acid] | -26% | -71% |  |  |
| CCCCCCCCC1CNc2cc(C(=O)OC)ccc21 (racemic) [Compound CEE, (RS)-methyl 3-(n-octyl)indoline-6-carboxylate] | -16% | -16% |  |  |
| CCCCCCCCCCCc1cc2c(C(=O)O)cccc2[nH]1 [Compound W, 2-(n-undecyl)indole-4-carboxylic acid] | -3% | 22% |  |  |
| CCCCCCCCCCCCCc1cc2ccc(C(=O)OCC)cc2[nH]1 [Compound AMM, ethyl 2-(n-tridecyl)indole-6-carboxylate] | -4% | -12% |  |  |
| CCCCCCCCCc1cc2cccc(C(=O)O)c2[nH]1 [Compound WW, 2-(n-nonyl)indole-7-carboxylic acid] | -3% | 45% |  |  |
| CCCCCCCCCCCCCCCCCCc1cc2ccc(C(=O)O)cc2[nH]1 [Compound V, 2-(n-octadecyl)indole-6-carboxylic acid] | 3% | -1% |  |  |
| CCCCCCCCCCCC1Nc2cc(C(=O)O)ccc2C1C (stereo not drawn) [Compound CNN, 2(RS),3(RS)-2-(n-undecyl)-3-methylindoline-6-carboxylic acid] | -31% | -72% |  |  |
| CCCCCCCCCCCCCCCCc1c[nH]c2ccc(C(=O)OC)cc12 [Compound BCC, methyl 3-(n-hexadecyl)indole-5-carboxylate] | 2% | 16% |  |  |

| Compound | change in vivo at 0.2 % strength [1] | change in vivo at 0.2 % strength [2] | change in vivo at 0.1 % strength [1] | change in vivo at 0.1 % strength [2] |
| --- | --- | --- | --- | --- |
| CCCCCCCCCCCc1cc2cccc(C(=O)O)c2[nH]1 [Compound XX, 2-(n-undecyl)indole-7-carboxylic acid] | -2% | 8% |  |  |
| CCCCCCCCc1cc2ccc(C(=O)O)cc2[nH]1 [Compound P, 2-(n-octyl)indole-6-carboxylic acid] | -32% | -37% |  |  |
| CCCCCCCCCCCCc1cc2cc(C(=O)OCCCC)ccc2[nH]1 [Compound KK, n-butyl 2-(n-dodecyl)indole-5-carboxylate] | -18% | -34% |  |  |
| CCCCCCCCCCCCCCCc1cc2ccc(C(=O)O)cc2[nH]1 [D sodium salt] |  |  | -10% | -18% |
| CCCCCCCCCCCCCCCc1cc2c(C(=O)OCCCC)cccc2[nH]1 [Compound MM, n-butyl 2-(n-pentadecyl)indole-4-carboxylate] | 25% | -41% |  |  |
| CCCCCCCCCCCCCCCC1CNc2cc(C(=O)O)ccc21 (racemic) [Compound BZZ, (RS)-3-(n-pentadecyl)indoline-6-carboxylic acid] | -1% | -29% |  |  |
| CCCCCCCCCC(C)c1cc2cc(C(=O)O)ccc2[nH]1 (racemic) [Compound RR, (RS)-2-(1-methyldecyl)indole-5-carboxylic acid] | -7% | -88% |  |  |
| CCCCCCCCCCCC1Cc2cc(C(=O)O)ccc2N1C (racemic) [Compound BJJ, (RS)-1-methyl-2-(n-undecyl)indoline-5-carboxylic acid] | -15% | -41% |  |  |
| CCCCCCCCCCc1cc2cc(C(=O)O)ccc2[nH]1 [Compound M, 2-(n-decyl)indole-5-carboxylic acid] | -26% | -65% |  |  |
| CCCCCCCCCCCCCCCCC1CNc2ccc(C(=O)OC)cc21 (racemic) [Compound BNN, (RS)-methyl 3-(n-hexadecyl)indoline-5-carboxylate] | 7% | -20% |  |  |
| CCCCCCCCCCCCCCCCCCc1c[nH]c2ccc(C(=O)O)cc12 [Compound BSS, 3-(n-octadecyl)indole-5-carboxylic acid] | -9% | -11% |  |  |
| CCCCCCCc1cc2cc(C(=O)OCCCC)ccc2[nH]1 [Compound ARR, n-butyl 2-(n-heptyl)indole-5-carboxylate] | 8% | 20% |  |  |
| CCCCCCCc1cc2ccc(C(=O)O)cc2[nH]1 [Compound R, 2-(n-heptyl)indole-6-carboxylic acid] | -12% | -18% |  |  |
| CCCCCCCCCCCCCCCc1cc2cc(C(=O)OCC)ccc2[nH]1 [Compound BB, ethyl 2-(n-pentadecyl)indole-5-carboxylate] | -19% | -39% |  |  |
| CCCCCCCCc1c[nH]c2cc(C(=O)OC)ccc12 [Compound AZZ, methyl 3-(n-octyl)indole-6-carboxylate] | -18% | 24% |  |  |
| CCCCCCCCCCCc1cc2ccc(C(=O)OCCCC)cc2[nH]1 [Compound GG, n-butyl 2-(n-undecyl)indole-6-carboxylate] | -11% | -35% |  |  |
| CCCCCCCCCCCCCCCCCCC1CNc2cc(C(=O)O)ccc21 (racemic) [Compound CBB, (RS)-3-(n-octadecyl)indoline-6-carboxylic acid] | 2% | -7% |  |  |
